Reference: patent US20240360148A1 (SUVALENT THERAPEUTICS, INC., priority 2021, published 2024)

target: SAE1 (Homo sapiens (Human), UniProt Q9UBE0+Q9UBT2); experiment: SAE High Throughput Biochemical Assay (HTRF), 15 min preincubation; conditions: read-out: 15 min preincubation HTRF IC50 (μM) Ave, SAE1 12.5 nM, ATP 100 μM
Protocol: Assay buffer was prepared [50 mM HEPES, pH 7.5, 0.1% BSA and 10 mM MgCl2] as was the Stop Buffer [100 mM HEPES, pH 7.5, 0.05% Tween20, and 410 mM KF]. The 2×Reaction Buffer [80 nM SUMO-GST, 80 nM UBC9-His, 200 μM ATP and diluted in Assay Buffer] and Antibody Reaction Mix [13.34 nM anti-GSTXL665, 1.66 nM anti-His EuK and Diluted in Stop Buffer] were also prepared. Compounds were dissolved at 200×in DMSO in a 384-well plate. Serial dilutions were performed in DMSO for each compound, and then each concentration was diluted another 50-fold in Assay Buffer, to 4× the final concentration. 2.5 μL of each concentration was transferred into its own well in a 384-well plate. SAE1 was then diluted to 4× in Assay Buffer, and 2.5 μL of 4×SAE1 was mixed into each compound-containing well. After incubating for 15 minutes at RT, 5 μL of 2×Reaction Buffer was mixed into every well. Then after another 45 minutes at RT, 10 μL of Antibody Reaction Mix was added and mixed into every well. This plate was then read on an HTRF-compatible plate reader after 2 hours at RT, and again after sitting at RT overnight. [Final Component Concentrations: SAE1: 12.5 nM; SUMO-GST: 40 nM; UBC9-His: 40 nM; Anti-GST-XL665: 6.67 nM; Anti-His-EuK: 0.83 nM; and ATP: 100 μM] Alternatively, the compounds are tested at a single concentration of 25 micromolar and the percent of control is measured.

Chain of SAE1 (Q9UBE0 whole entry): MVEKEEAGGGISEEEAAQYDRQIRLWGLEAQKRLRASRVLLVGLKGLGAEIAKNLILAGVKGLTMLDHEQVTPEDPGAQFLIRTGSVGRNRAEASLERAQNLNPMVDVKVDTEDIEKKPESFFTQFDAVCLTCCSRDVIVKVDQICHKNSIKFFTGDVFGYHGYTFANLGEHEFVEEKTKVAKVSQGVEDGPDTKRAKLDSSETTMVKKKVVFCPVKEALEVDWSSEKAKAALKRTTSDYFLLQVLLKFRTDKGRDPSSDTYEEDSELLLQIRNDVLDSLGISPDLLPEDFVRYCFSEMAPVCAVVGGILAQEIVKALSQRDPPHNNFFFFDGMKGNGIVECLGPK
Chain of SAE1 (Q9UBT2 whole entry): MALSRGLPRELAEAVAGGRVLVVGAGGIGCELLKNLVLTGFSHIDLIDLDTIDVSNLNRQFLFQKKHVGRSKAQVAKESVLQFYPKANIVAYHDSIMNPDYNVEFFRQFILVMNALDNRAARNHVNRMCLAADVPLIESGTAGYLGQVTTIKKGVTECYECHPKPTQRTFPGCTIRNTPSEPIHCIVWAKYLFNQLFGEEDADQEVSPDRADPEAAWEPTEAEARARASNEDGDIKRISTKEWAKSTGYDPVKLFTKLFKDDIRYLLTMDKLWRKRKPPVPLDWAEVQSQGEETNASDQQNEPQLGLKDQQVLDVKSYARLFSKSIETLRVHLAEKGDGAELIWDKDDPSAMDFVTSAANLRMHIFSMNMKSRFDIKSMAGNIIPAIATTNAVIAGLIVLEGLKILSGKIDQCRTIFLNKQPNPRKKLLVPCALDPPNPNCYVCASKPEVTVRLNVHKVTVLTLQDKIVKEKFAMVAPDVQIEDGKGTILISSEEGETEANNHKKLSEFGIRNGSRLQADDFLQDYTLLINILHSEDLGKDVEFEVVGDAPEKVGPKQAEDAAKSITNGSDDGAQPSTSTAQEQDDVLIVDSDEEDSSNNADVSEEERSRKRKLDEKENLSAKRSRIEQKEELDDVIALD

Row | Structure (SMILES) | IC50 [µM]
1 | CCn1cc(-c2c(C3CN(C(=O)/C=C/CN(C)C)Cc4sc(C#N)cc43)ccc(F)c2F)c(C(F)(F)F)n1 (stereo not shown) [Example 184, (E)-6-(4-(Dimethylamino)but-2-enoyl)-4-(2-(1-ethyl-3-(trifluoromethyl)-1 H-pyrazol-4-yl)-3,4-difluorophenyl)-4,5,6,7-tetrahydrothieno[2,3-c]pyridine-2-carbonitrile] | 8.37
2 | CCn1cc(-c2sccc2C2CN(C(=O)/C=C/CN(C)C)Cc3sc(C#N)cc32)c(C(F)(F)F)n1 (stereo not shown) [Example 207, (E)-6-(4-(Dimethylamino)but-2-enoyl)-4-(2-(1-ethyl-3-(trifluoromethyl)-1H pyrazol-4-yl)thiophen-3-yl)-4,5,6,7-tetrahydrothieno[2,3-c]pyridine-2-carbonitrile] | > 25
3 | CN(C)C/C=C/C(=O)N1Cc2sc(C#N)cc2[C@H](c2ccccc2-c2cn(CCC(=O)O)nc2C(F)(F)F)C1 [Example 173, (S, E)-3-(4-(2-(2-Cyano-6-(4-(dimethylamino)but-2-enoyl)-4,5,6,7-tetrahydrothieno[2,3-c]pyridin-4-yl)phenyl)-3-(trifluoromethyl)-1H-pyrazol-1-yl)propanoic acid] | 17.3
4 | CCn1cc(-c2ccccc2[C@@H]2CN(C(=O)/C=C/CN(C)Cc3ccccc3)Cc3sc(C#N)cc32)c(C(F)(F)F)n1 [Example 33, (S, E)-6-(4-(benzyl(methyl)amino)but-2-enoyl)-4-(2-(1-ethyl-3-(trifluoromethyl)-1 H-pyrazol-4-yl)phenyl)-4,5,6,7-tetrahydrothieno[2,3-c]pyridine-2-carbonitrile] | 8.44
5 | CCn1cc(-c2ccccc2[C@@H]2CN(C(=O)/C=C/C3(N)CC3)Cc3sc(C#N)cc32)c(C(F)(F)F)n1 [Example 109, (S, E)-6-(3-(1-Aminocyclopropyl)acryloyl)-4-(2-(1-ethyl-3-(trifluoromethyl)-1 H-pyrazol-4-yl)phenyl)-4,5,6,7-tetrahydrothieno[2,3-c]pyridine-2-carbonitrile] | 26.5
6 | CN(C)C/C=C/C(=O)N1Cc2sc(C#N)cc2[C@H](c2ccccc2-c2cn(CC(N)=O)nc2C(F)(F)F)C1 [Example 162, (S, E)-2-(4-(2-(2-Cyano-6-(4-(dimethylamino)but-2-enoyl)-4,5,6,7-tetrahydrothieno[2,3-c]pyridin-4-yl)phenyl)-3-(trifluoromethyl)-1 H-pyrazol-1-yl)acetamide] | 11.6
7 | CN(C)C/C=C/C(=O)N1Cc2sc(C#N)cc2[C@H](c2ccccc2C#N)C1 [Example 4, (S, E)-4-(2-Cyanophenyl)-6-(4-(dimethylamino)but-2-enoyl)-4,5,6,7-tetrahydrothieno[2,3-c]pyridine-2-carbonitrile] | > 25
8 | CCn1cc(-c2ccccc2[C@@H]2CN(C(=O)/C=C/CNC3(C)COC3)Cc3sc(C#N)cc32)c(C(F)(F)F)n1 [Example 95, (S, E)-4-(2-(1-Ethyl-3-(trifluoromethyl)-1 H-pyrazol-4-yl)phenyl)-6-(4-((3-methyloxetan-3-yl)amino)but-2-enoyl)-4,5,6,7-tetrahydrothieno[2,3-c]pyridine-2-carbonitrile] | 15.6
9 | CCOC(=O)CCCn1cc(-c2ccccc2[C@@H]2CN(C(=O)/C=C/CN(C)C)Cc3sc(C#N)cc32)c(C(F)(F)F)n1 [Example 171] | 12
10 | CCn1cc(-c2cc(NC(=O)NC)ccc2C2CN(C(=O)/C=C/CN(C)C)Cc3sc(C#N)cc32)c(C(F)(F)F)n1 (stereo not shown) [Example 195, (E)-1-(4-(2-Cyano-6-(4-(dimethylamino)but-2-enoyl)-4,5,6,7-tetrahydrothieno[2,3-c]pyridin-4-yl)-3-(1-ethyl-3-(trifluoromethyl)-1 H-pyrazol-4-yl)phenyl)-3-methylurea] | 11.3
11 | CCn1cc(-c2cc(F)ccc2C2CN(C(=O)/C=C/CN(C)C)Cc3sc(C#N)cc32)c(C(F)(F)F)n1 (stereo not shown) [Example 211, (E)-6-(4-(Dimethylamino)but-2-enoyl)-4-(2-(1-ethyl-3-(trifluoromethyl)-1 H-pyrazol-4 yl)-4-fluorophenyl)-4,5,6,7-tetrahydrothieno[2,3-c]pyridine-2-carbonitrile] | 20.2
12 | CCn1cc(-c2c(F)cccc2[C@@H]2CN(C(=O)/C=C/CNC3CCN(C(C)=O)CC3)Cc3sc(C#N)cc32)c(C(F)(F)F)n1 [Example 57, (S, E)-6-(4-((1-acetylpiperidin-4-yl)amino)but-2-enoyl)-4-(2-(1-ethyl-3-(trifluoromethyl)-1 H-pyrazol-4-yl)-3-fluorophenyl)-4,5,6,7-tetrahydrothieno[2,3-c]pyridine-2-carbonitrile] | > 25
13 | CCn1cc(-c2ccccc2[C@@H]2CN(C(=O)/C=C/C(C)(C)N)Cc3sc(C#N)cc32)c(C(F)(F)F)n1 [Example 37, (S, E)-6-(4-amino-4-methylpent-2-enoyl)-4-(2-(1-ethyl-3-(trifluoromethyl)-1 H-pyrazol-4-yl)phenyl)-4,5,6,7-tetrahydrothieno[2,3-c]pyridine-2-carbonitrile] | > 25
14 | CN(C)C/C=C/C(=O)N1Cc2sc(C#N)cc2[C@H](c2ccccc2-c2cn(S(C)(=O)=O)nc2C(F)(F)F)C1 [Example 168, (S, E)-6-(4-(Dimethylamino)but-2-enoyl)-4-(2-(1-(methylsulfonyl)-3-(trifluoromethyl)-1 H pyrazol-4-yl)phenyl)-4,5,6,7-tetrahydrothieno[2,3-c]pyridine-2-carbonitrile] | 18.8
15 | CN(C)C/C=C/C(=O)N1Cc2sc(C#N)cc2[C@H](c2ccccc2-c2cn(-c3ccnc(N)c3)nc2C(F)(F)F)C1 [Example 160, (S, E)-4-(2-(1-(2-Aminopyridin-4-yl)-3-(trifluoromethyl)-1 H-pyrazol-4-yl)phenyl)-6-(4-(dimethylamino)but-2-enoyl)-4,5,6,7-tetrahydrothieno[2,3-c]pyridine-2-carbonitrile] | 24.4
16 | C=C(CO)C(=O)N1Cc2sc(C#N)cc2[C@H](c2ccccc2-c2cn(CC)nc2C(F)(F)F)C1 [Example 62, (S)-4-(2-(1-Ethyl-3-(trifluoromethyl)-1 H pyrazol-4-yl)phenyl)-6-(2-(hydroxymethyl)acryloyl)-4,5,6,7-tetrahydrothieno[2,3-c]pyridine-2-carbonitrile] | > 25
17 | CCn1cc(-c2ccccc2[C@@H]2CN(C(=O)/C=C/CN(C)C)Cc3sc(C#N)cc32)c(C(C)(F)F)n1 [Example 10, (S, E)-4-(2-(3-(1,1-difluoroethyl)-1-ethyl-1H-pyrazol-4-yl)phenyl)-6-(4-(dimethylamino)but-2-enoyl)-4,5,6,7-tetrahydrothieno[2,3-c]pyridine-2-carbonitrile] | 13.4
18 | CCn1cc(-c2ccccc2[C@@H]2CN(C(=O)/C=C/[C@@H](C)NC)Cc3sc(C#N)cc32)c(C(F)(F)F)n1 [Example 87, (S)-4-(2-(1-Ethyl-3-(trifluoromethyl)-1 H-pyrazol-4-yl)phenyl)-6-((R, E)-4-(methylamino)pent-2-enoyl)-4,5,6,7-tetrahydrothieno[2,3-c]pyridine-2-carbonitrile] | 18.2
19 | CCn1cc(-c2ccccc2[C@@H]2CN(C(=O)/C=C/[C@H](N)CO)Cc3sc(C#N)cc32)c(C(F)(F)F)n1 [Example 73, (S)-6-((S,E)-4-Amino-5-hydroxypent-2-enoyl)-4-(2-(1-ethyl-3-(trifluoromethyl)-1H pyrazol-4-yl)phenyl)-4,5,6,7-tetrahydrothieno[2,3-c]pyridine-2-carbonitrile] | 21.9
